# Assay results reported in PMC11350758, “Development of Xanthoangelol-Derived Compounds with Membrane-Disrupting Effects against Gram-Positive Bacteria” (Antibiotics, 2024).
# Assays:
# [1] = system: Acinetobacter baumannii ATCC19606; experiment: MIC, broth microdilution; assay type: cell-based; conditions: Acinetobacter baumannii ATCC19606; for MIC: read-out: MIC A. b. 19606
# Experimental: (§1) All target derivatives were assessed for their in vitro antibacterial activities using a broth microdilution assay to test their minimum inhibitory concentrations (MICs) against six Gram-positive strains (S. aureus ATCC31007, S. aureus ATCC25923, S. aureus ATCC43300, E. faecalis ATCC29212, B. subtilis ATCC9372, and S. epidermidis ATCC12228) and four Gram-negative strains (A. baumannii ATCC19606, K. pneumonia ATCC10031, E. coli ATCC25922, and P. aeruginosa ATCC27853). These compounds were also evaluated for their hemolytic activities and membrane selectivity by determining their HC50 (the concentration required to lyse 50% of red blood cells) and SI (HC50/MICs) values, respectively, and vancomycin was used as the positive drug.
# (§2) MICs of the derivatives were determined by the micro broth dilution method according to the American Clinical and Laboratory Standards Institute (CLSI) standards. Briefly, 2-fold serial dilutions of target compounds were prepared in 96-well plates containing TSB broth. An equal volume of bacterial suspension (10^6 CFU/mL) was then pipetted into each well, and the mixture was incubated at 37 °C for 24 h. […] All biological experiments were repeated three times.
# [2] = system: Bacillus subtilis ATCC9372, penicillin-susceptible strain; experiment: MIC, broth microdilution; assay type: cell-based; conditions: Bacillus subtilis ATCC9372; for MIC: read-out: MIC B. s. 9372
# Experimental: as §1, §2
# [3] = system: Enterococcus faecalis ATCC29212, vancomycin-susceptible strain; experiment: MIC, broth microdilution; assay type: cell-based; conditions: Enterococcus faecalis ATCC29212; for MIC: read-out: MIC E. f. 29212
# Experimental: as §1, §2
# [4] = system: Escherichia coli ATCC25922, penicillin-susceptible strain; experiment: MIC, broth microdilution; assay type: cell-based; conditions: Escherichia coli ATCC25922; for MIC: read-out: MIC E. c. 25922
# Experimental: as §1, §2
# [5] = system: Klebsiella pneumonia ATCC10031; experiment: MIC, broth microdilution; assay type: cell-based; conditions: Klebsiella pneumonia ATCC10031; for MIC: Klebsiella pneumoniae, read-out: MIC K. p. 10031
# Experimental: as §1, §2
# [6] = system: Pseudomonas aeruginosa ATCC27853, penicillin-susceptible strain; experiment: MIC, broth microdilution; assay type: cell-based; conditions: Pseudomonas aeruginosa ATCC27853; for MIC: read-out: MIC P. a. 27853
# Experimental: as §1, §2
# [7] = system: Staphylococcus aureus ATCC25923, erythromycin-susceptible strain; experiment: MIC, broth microdilution; assay type: cell-based; conditions: Staphylococcus aureus ATCC25923; for MIC: read-out: MIC S. a. 25923
# Experimental: as §1, §2
# [8] = system: Staphylococcus aureus ATCC31007, penicillin-resistant strain; experiment: MIC, broth microdilution; assay type: cell-based; conditions: Staphylococcus aureus ATCC31007; for MIC: read-out: MIC S. a. 31007
# Experimental: as §1, §2
# [9] = system: Staphylococcus epidermidis ATCC12228, erythromycin-susceptible strain; experiment: MIC, broth microdilution; assay type: cell-based; conditions: Staphylococcus epidermidis ATCC12228; for MIC: read-out: MIC S. e. 12228
# Experimental: as §1, §2
# [10] = system: Staphylococcus aureus ATCC43300, methicillin-resistant strain; experiment: microbe, parasite or virus in culture; assay type: cell-based; conditions: Staphylococcus aureus ATCC43300 (MRSA); for MIC: ATCC 43300 / MRSA, read-out: MIC S. a 43300
# Experimental: as §1, §2
# [11] = system: Enterococcus faecalis ATCC51299, vancomycin-resistant strain; experiment: MIC, broth microdilution; assay type: cell-based; conditions: Enterococcus faecalis ATCC51299, vancomycin-resistant; for MIC: read-out: MIC E. f. 51299
# Experimental: as §2
# [12] = system: Enterococcus faecium ATCC51559, vancomycin-resistant strain; experiment: MIC, broth microdilution; assay type: cell-based; conditions: Enterococcus faecium ATCC51559, vancomycin-resistant; for MIC: read-out: MIC E. f. 51559
# Experimental: as §2
# [13] = system: red blood cells; experiment: Hemolysis assay; assay type: cell-based, Sheep; conditions: concentration required to lyse 50% of red blood cells; 37 °C, 1 h
# Experimental: as §1
# To further detect the hemolytic toxicity and therapeutic potential of these derivatives, we proceeded to examine the hemolytic activities and membrane selectivity of these derivatives. The HC50 value was defined as the concentration needed for a compound to lyse 50% of red blood cells, and it is often used to evaluate the hemolytic toxicity to eukaryotic cells. […] The selectivity index (SI) was calculated by HC50/MICs of S. aureus ATCC43300 and was used to assess the potency and safety of the compounds. […] Thus, compound 9h was selected as a representative molecule for the in-depth in vitro and in vivo studies.
# Sheep blood was used to isolate red blood cells (RBCs), which were then resuspended in 1× PBS (5%). The compounds were dissolved in PBS to give an initial concentration of 5.12 mg/mL, compound solution (100 μL) was added to the first well of a 96-well plate, two-fold serial dilutions of compounds were prepared in 96-well plates, and then 150 μL of 5% RBC suspension was added to each well. This was followed by incubation at 37 °C for 1 h. After incubation, the plate was centrifuged (3500 rpm, 5 min), and 100 μL of supernatant solution from each well was carefully pipetted into a new plate. The absorbance values were measured at 540 nm. Erythrocyte hemolysis rate = (Absorbancecompound – Absorbance negative control)/(Absorbance1% Triton X-100 − Absorbance negative control) × 100%. All biological experiments were repeated three times.
# [14] = system: S. aureus; experiment: MIC, summary over the S. aureus strains tested; assay type: cell-based; conditions: Staphylococcus aureus; over the three S. aureus strains tested; read-out: MICs against S. aureus
# Experimental: as §1, §2
Compound,MIC [1],MIC [2],MIC [3],MIC [4],MIC [5],MIC [6],MIC [7],MIC [8],MIC [9],MIC [10],MIC [11],MIC [12],HC50 [13],further results
"colistin [Cos, reference compound]",–,–,–,–,–,–,–,–,–,–,–,–,–,MIC A. b. 19606 [1]: 1 µg/mL; MIC B. s. 9372 [2]: 16 µg/mL; MIC E. f. 29212 [3]: 128 µg/mL; MIC E. c. 25922 [4]: 0.5 µg/mL; MIC K. p. 10031 [5]: 1 µg/mL; MIC P. a. 27853 [6]: 0.5 µg/mL; MIC S. a. 25923 [7]: 128 µg/mL; MIC S. a. 31007 [8]: 128 µg/mL; MIC S. e. 12228 [9]: 64 µg/mL; MIC S. a 43300 [10]: 128 µg/mL; MIC E. f. 51299 [11]: >128 µg/mL; MIC E. f. 51559 [12]: >128 µg/mL
"CCN(CC)CCCOc1c(C(C)=O)ccc2c1C=CC(C)(CCC=C(C)C)O2 (centres unmarked) [Compound 5c, 1-(5-(3-(Diethylamino)propoxy)-2-methyl-2-(4-methylpent-3-en-1-yl)-2H-chromen-6-yl)ethan-1-one]",32 µg/mL,16 µg/mL,32 µg/mL,128 µg/mL,16 µg/mL,32 µg/mL,32 µg/mL,32 µg/mL,16 µg/mL,32 µg/mL,128 µg/mL,64 µg/mL,324.1 µg/mL,MIC [14]: 8 to 128 µg/mL
"CCN(CC)CCCNCCCOc1c2c(c3c(c1C(C)=O)OC(C)(CCC=C(C)C)C=C3)OC(C)(CCC=C(C)C)C=C2 (centres unmarked) [Compound 9g, 1-(5-(3-((3-(Diethylamino)propyl)amino)propoxy)-2,8-dimethyl-2,8-bis(4-methylpent-3-en-1-yl)-2H,8H-pyrano[2,3-f]chromen-6-yl)ethan-1-one]",4 µg/mL,2 µg/mL,1 µg/mL,4 µg/mL,8 µg/mL,32 µg/mL,2 µg/mL,4 µg/mL,1 µg/mL,4 µg/mL,32 µg/mL,32 µg/mL,34.9 µg/mL,–
"CNCCN(C)CCCOc1c2c(c3c(c1C(C)=O)OC(C)(CCC=C(C)C)C=C3)OC(C)(CCC=C(C)C)C=C2 (centres unmarked) [Compound 9f, 1-(2,8-Dimethyl-5-(3-(methyl(2-(methylamino)ethyl)amino)propoxy)-2,8-bis(4-methylpent-3-en-1-yl)-2H,8H-pyrano[2,3-f]chromen-6-yl)ethan-1-one]",64 µg/mL,8 µg/mL,8 µg/mL,128 µg/mL,16 µg/mL,> 128 µg/mL,4 µg/mL,4 µg/mL,8 µg/mL,4 µg/mL,4 µg/mL,8 µg/mL,40.3 µg/mL,–
"CCN(CC)CCCOc1c2c(c3c(c1C(C)=O)OC(C)(CCC=C(C)C)C=C3)OC(C)(CCC=C(C)C)C=C2 (centres unmarked) [Compound 9c, 1-(5-(3-(Diethylamino)propoxy)-2,8-dimethyl-2,8-bis(4-methylpent-3-en-1-yl)-2H,8H-pyrano[2,3-f]chromen-6-yl)ethan-1-one]",> 128 µg/mL,2 µg/mL,1 µg/mL,> 128 µg/mL,> 128 µg/mL,> 128 µg/mL,2 µg/mL,2 µg/mL,1 µg/mL,4 µg/mL,8 µg/mL,4 µg/mL,187.6 µg/mL,MIC [14]: 2 to 4 µg/mL
"CC(=O)c1ccc2c(c1OCCCNCCN(C)C)C=CC(C)(CCC=C(C)C)O2 (centres unmarked) [Compound 5f, 1-(5-(3-((2-(Dimethylamino)ethyl)amino)propoxy)-2-methyl-2-(4-methylpent-3-en-1-yl)-2H-chromen-6-yl)ethan-1-one]",8 µg/mL,8 µg/mL,8 µg/mL,8 µg/mL,8 µg/mL,32 µg/mL,16 µg/mL,16 µg/mL,8 µg/mL,8 µg/mL,32 µg/mL,32 µg/mL,127.7 µg/mL,–
"CC(=O)c1c(OCCC[n+]2ccccc2)c2c(c3c1OC(C)(CCC=C(C)C)C=C3)OC(C)(CCC=C(C)C)C=C2 (centres unmarked) [Compound 9b, 1-(3-((6-Acetyl-2,8-dimethyl-2,8-bis(4-methylpent-3-en-1-yl)-2H,8H-pyrano[2,3-f]chromen-5-yl)oxy)propyl)pyridin-1-ium]",32 µg/mL,2 µg/mL,2 µg/mL,128 µg/mL,32 µg/mL,> 128 µg/mL,2 µg/mL,4 µg/mL,32 µg/mL,1 µg/mL,4 µg/mL,4 µg/mL,26.6 µg/mL,–
"CC(=O)c1ccc2c(c1OCCCN1CCN(C(C)=O)CC1)C=CC(C)(CCC=C(C)C)O2 (centres unmarked) [Compound 5e, 1-(4-(3-((6-Acetyl-2-methyl-2-(4-methylpent-3-en-1-yl)-2H-chromen-5-yl)oxy)propyl)piperazin-1-yl)ethan-1-one]",128 µg/mL,64 µg/mL,32 µg/mL,> 128 µg/mL,> 128 µg/mL,> 128 µg/mL,128 µg/mL,128 µg/mL,64 µg/mL,128 µg/mL,128 µg/mL,128 µg/mL,62.3 µg/mL,–
"CC(=O)c1ccc2c(c1OCCCN1CC(C)OC(C)C1)C=CC(C)(CCC=C(C)C)O2 (centres unmarked) [Compound 5d, 1-(5-(3-(2,6-Dimethylmorpholino)propoxy)-2-methyl-2-(4-methylpent-3-en-1-yl)-2H-chromen-6-yl)ethan-1-one]",128 µg/mL,> 128 µg/mL,> 128 µg/mL,> 128 µg/mL,128 µg/mL,> 128 µg/mL,> 128 µg/mL,> 128 µg/mL,> 128 µg/mL,> 128 µg/mL,> 128 µg/mL,> 128 µg/mL,746.5 µg/mL,–
"CCNCCCOc1c(C(C)=O)ccc2c1C=CC(C)(CCC=C(C)C)O2 (centres unmarked) [Compound 5b, 1-(5-(3-(Ethylamino)propoxy)-2-methyl-2-(4-methylpent-3-en-1-yl)-2H-chromen-6-yl)ethan-1-one]",16 µg/mL,8 µg/mL,8 µg/mL,32 µg/mL,16 µg/mL,> 128 µg/mL,16 µg/mL,16 µg/mL,8 µg/mL,16 µg/mL,32 µg/mL,32 µg/mL,118.4 µg/mL,–
